In article PMC6429436 (Bioconjugate Chemistry, 2019):
Where “and” joins values, the source holds several entries; their conditions need not be identical. Equal values may be shown once.

Key:
CTB = settings: LeY-CTB binding, secondary binding site; cited from earlier work
cholera toxin B-subunit = cholera toxin B-subunit (Vibrio cholerae serotype O1, UniProt P01556); assay: biochemical; assay type: binding
[1] = tested on: CT-induced swelling of intestinal organoids; assay: cells; assay type: cell-based, human

Sequence of cholera toxin B-subunit (P01556 22-124 limits assumed): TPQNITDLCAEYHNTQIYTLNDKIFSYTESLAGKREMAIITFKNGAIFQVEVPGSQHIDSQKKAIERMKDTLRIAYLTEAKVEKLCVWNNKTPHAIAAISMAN

## CC(=O)N[C@@H]1[C@@H](O[C@@H]2O[C@@H](C)[C@@H](O)[C@@H](O)[C@@H]2O)[C@H](O[C@@H]2O[C@H](CO)[C@H](O)[C@H](O)[C@H]2O[C@@H]2O[C@@H](C)[C@@H](O)[C@@H](O)[C@@H]2O)[C@@H](CO)O[C@H]1O [LeY]
CTB
  Kd: 1.4 mM

## O=C[C@H](O)[C@@H](O)[C@@H](O)[C@H](O)CO [galactose]
Cholera toxin B-subunit
  rel. pot.: 1
  rel. pot. per sugar: 1
Cholera toxin B-subunit; IC50 (μg/mL)
  IC50: 111 mM
[1]
  rel. pot.: 1
  rel. pot. per sugar: 1
[1]; Homo sapiens
  IC50: 100 mM and 18000 µg/mL
